Measured values: patent publication US6987132B1, “Enediyne compounds and methods related thereto” (Advanced Research and Technology Institute, Inc., priority 2000, dated 2006)

Tests used:
[1] = Thermal cyclization temperature and stability of free ligands in solution; details: for could tolerate heating to (temperature): free ligand in solution; for thermal cyclization temperature in solution: absence of metal
[2] = Bergman enediyne cyclization temperature by differential scanning calorimetry (DSC) on neat materials; assay type: physicochemical; details: for Cyclization Temperature: free ligand, neat material, DSC, heating rate 10° C. min^−1; for Bergman cyclization temperature: comparison enediynes named in text, method not stated for them
Protocol: All preparations were carried out in an inert atmosphere (nitrogen) using Schlenk and drybox techniques. Chemicals used in the syntheses were of the highest purity available from Aldrich Chemical Company and used as received. Dichloromethane was dried and distilled from calcium hydride. The organic compounds were purified by flash chromatography with 60 Å Silica gel ([…]) using HPLC grade solvents. ^1H and ^13C NMR were recorded on VXR 400 MHz NMR spectrometer using the residual proton resonance as an internal reference. The multiplicity of the ^13C signals was determined by the DEPT technique. EI and FAB MS spectra were acquired on a Kratos MS-80 mass spectrometer that was interfaced with a Kratos DS90 data system. Differential scanning calorimetry traces were recorded on a General V4.1C DuPont 910 DSC differential scanning calorimeter coupled to a Dupont Thermal Analyst 2100 at a heating rate of 10° C. min^−1.

[3] = Reactivity of enediyne ligand upon addition of metal salts at room temperature; assay type: physicochemical
[4] = Pseudo first-order rate constant and half-life of thermal reactivity in DMSO by 1H NMR; assay type: physicochemical; details: 65° C., 20-fold cyclohexadiene
Source text: As is often observed in solution cyclization reactions of enediynes, a series of products was produced, which in this case included di-substituted benzenes, and as such no dominant species could be isolated from the reaction.

C(#CCN=Cc1ccccn1)/C=C\C#CCN=Cc1ccccn1 (stereo in doubt) [Compound 14, (Z)-N,N′-Bis[1-pyridin-2-yl-meth-(E)-ylidene]oct-4-ene-2,6-diyne-1,8-diamine]
could tolerate heating to (temperature) [1]: about 50 °C | thermal cyclization temperature in solution [1]: about 55 °C | Cyclization Temperature [2]: 100 °C | time to reaction completion ([3]; addition of MgCl2, no additional heating): 2 h | time to reaction completion ([3]; addition of zinc acetate): 0.083 h | observation upon addition of Zn(II) or Cu(II) ([3]; room temperature): turned black instantaneously

C(#Cc1cccnc1)C=CC#Cc1cccnc1 [1,6-bis(pyridine-3)hex-3-ene-1,5-diyne, reference compound]
Bergman cyclization temperature [2]: 195 °C

C(#CCOc1cccnc1)C=CC#CCOc1cccnc1 [bpod, 1,8-bis(pyridine-3-oxy)oct-4-ene-2,6-diyne, reference compound]
Bergman cyclization temperature [2]: 136 °C

NCC#CC=CC#CCN [Compound 12, 1,8-diaminooct-4-ene-2,6-diyne]
could tolerate heating to (temperature) [1]: about 50 °C | thermal cyclization temperature in solution [1]: about 65 °C | pseudo first-order rate constant kobs [4]: 0.0416 h⁻¹ | Cyclization Temperature [2]: 106 °C | decrease in the Bergman cyclization temperature ([2]; relative to the preceding compound of the series 4, 9, 12): 37 °C

CN(C)CC#CC=CC#CCN(C)C [Compound 4, 1,8-bis(dimethylamino)oct-4-ene-2,6-diyne]
Cyclization Temperature [2]: 186 °C
